Results published in ChEMBL document CHEMBL3044942, “Unexpected plant-systemic insecticidal properties of alkylene-tethered bis-imidacloprid derivatives” (J Pestic Sci, 2010).
Activity calls are given as the source filed them. No cut-off for these calls is given here.

Experiments:
Myzus persicae [1] = experiment: Insecticidal activity against Myzus persicae (green peach aphid) in compound treated chinese cabbage leaves assessed as mortality after foliar dipping at 10 mg/l at 25 degC measured after 120 hr; format: functional
Spodoptera litura [2] = experiment: Insecticidal activity against Spodoptera litura in compound treated chinese cabbage leaves assessed as mortality after foliar dipping at 10 mg/l at 25 degC measured after 120 hr; format: functional
[3] = Octanol-water partition coefficient, log P of the compound; format: physicochemical
Spodoptera litura [4] = experiment: Insecticidal activity against Spodoptera litura in compound treated chinese cabbage leaves assessed as mortality after foliar dipping at 100 mg/l at 25 degC measured after 120 hr; format: functional
Myzus persicae [5] = experiment: Insecticidal activity against Myzus persicae (green peach aphid) in compound treated chinese cabbage leaves assessed as mortality after foliar dipping at 100 mg/l at 25 degC measured after 120 hr; format: functional
Nilaparvata lugens [6] = experiment: Insecticidal activity against Nilaparvata lugens (brown planthoppers) in rice seedlings root dipped in compound assessed as mortality at 100 mg/l measured after 7 days of drench application by systemic insecticidal activity assay; format: functional, organism-based
Plutella xylostella [7] = experiment: Insecticidal activity against Plutella xylostella (diamondback moth) assessed as mortality after soil treatment on third day of infestation; format: functional, organism-based
Plutella xylostella [8] = experiment: Insecticidal activity against Plutella xylostella (diamondback moth) in compound treated cabbage leaves assessed as mortality at 10 mg/l measured on day 3 after foliar treatment by residual insecticidal activity assay; format: functional, organism-based
Myzus persicae [9] = experiment: Insecticidal activity against Myzus persicae (green peach aphid) assessed as mortality after soil treatment at 25 degC measured after 11th day of infestation; format: functional, organism-based
Myzus persicae [10] = experiment: Insecticidal activity against Myzus persicae (green peach aphid) in compound treated chinese cabbage leaves assessed as mortality at 10 mg/l measured on day 3 after foliar treatment by residual insecticidal activity assay; format: functional, organism-based
Nilaparvata lugens [11] = experiment: Insecticidal activity against Nilaparvata lugens (brown planthoppers) in rice seedlings root dipped in compound assessed as mortality at 100 mg/l measured after 3 days of drench application by systemic insecticidal activity assay; format: functional, organism-based
Nilaparvata lugens [12] = experiment: Insecticidal activity against Nilaparvata lugens (brown planthopper) in rice seedlings assessed as mortality measured on day 3 after foliar treatment by residual insecticidal activity assay; format: functional, organism-based
Nilaparvata lugens [13] = experiment: Insecticidal activity against Nilaparvata lugens (brown plant hoppers) in rice seedlings root dipped in compound assessed as mortality at 100 mg/l measured after 14 days of drench application by systemic insecticidal activity assay; format: functional, organism-based

Structure (SMILES) | mortality at 10 µg/mL (Myzus persicae [1]) [%] | mortality at 10 µg/mL (Spodoptera litura [2]) [%] | logP ([3]; read-out: logP) | mortality at 100 µg/mL (Spodoptera litura [4]) [%] | mortality at 100 µg/mL (Myzus persicae [5]) [%] | inhibition (Nilaparvata lugens [6]) | inhibition (Plutella xylostella [7]) | Activity (Plutella xylostella [8]) | inhibition (Myzus persicae [9]) | Activity (Myzus persicae [10]) | inhibition (Nilaparvata lugens [11]) | Activity (Nilaparvata lugens [12]) | inhibition (Nilaparvata lugens [13]) | logP [3]
O=[N+]([O-])/N=C1\N(CCCN2CCN(Cc3ccc(Cl)nc3)/C2=N/[N+](=O)[O-])CCN1Cc1ccc(Cl)nc1 | 13 | 13 | 4.35 | 80 | 27 | – | – | – | – | – | – | – | – | –
O=[N+]([O-])/N=C1\N(CCCCCCCCCCN2CCN(Cc3ccc(Cl)nc3)/C2=N/[N+](=O)[O-])CCN1Cc1ccc(Cl)nc1 | 27 | 0 | 5.76 | 27 | 43 | – | – | – | – | – | – | – | – | –
O=[N+]([O-])/N=C1\N(CCCCCN2CCN(Cc3ccc(Cl)nc3)/C2=N/[N+](=O)[O-])CCN1Cc1ccc(Cl)nc1 | 0 | 0 | 4.77 | 40 | 13 | – | – | – | – | – | – | – | – | –
O=[N+]([O-])/N=C1\N(CCN2CCN(Cc3ccc(Cl)nc3)/C2=N/[N+](=O)[O-])CCN1Cc1ccc(Cl)nc1 | 23 | 0 | 4.13 | 20 | 97 | – | – | – | – | – | – | – | – | –
O=[N+]([O-])/N=C1\N(CCCCN2CCN(Cc3ccc(Cl)nc3)/C2=N/[N+](=O)[O-])CCN1Cc1ccc(Cl)nc1 | 0 | 7 | 4.56 | 57 | 7 | – | – | – | – | – | – | – | – | –
O=[N+]([O-])/N=C1/N(Cc2ccc(Cl)nc2)CCN1Cc1cccc(CN2CCN(Cc3ccc(Cl)nc3)/C2=N/[N+](=O)[O-])c1 | 33 | 3 | 5.69 | 47 | 57 | – | – | – | – | – | – | – | – | –
O=[N+]([O-])/N=C1\N(CCCCCCCN2CCN(Cc3ccc(Cl)nc3)/C2=N/[N+](=O)[O-])CCN1Cc1ccc(Cl)nc1 | 93 | 23 | 5.18 | 85 | 97 | Active | Active | Active | Active | Active | Active | Active | Active | –
O=[N+]([O-])/N=C1\N(CCCCCCCCCN2CCN(Cc3ccc(Cl)nc3)/C2=N/[N+](=O)[O-])CCN1Cc1ccc(Cl)nc1 | 77 | 3 | 5.57 | 57 | 93 | – | – | – | – | – | – | – | – | –
O=[N+]([O-])NC1=NCCN1Cc1ccc(Cl)nc1 [IMIDACLOPRID] | 100 | 17 | – | 97 | 100 | – | – | – | – | – | – | – | – | 1.88
O=[N+]([O-])/N=C1\N(CCCCCCCCCCCCN2CCN(Cc3ccc(Cl)nc3)/C2=N/[N+](=O)[O-])CCN1Cc1ccc(Cl)nc1 | 19 | 0 | 6.14 | 0 | 50 | – | – | – | – | – | – | – | – | –
O=[N+]([O-])/N=C1\N(CCCCCCN2CCN(Cc3ccc(Cl)nc3)/C2=N/[N+](=O)[O-])CCN1Cc1ccc(Cl)nc1 | 10 | 27 | 4.97 | 83 | 23 | Active | – | Active | – | Active | Active | Active | Active | –
O=[N+]([O-])/N=C1\N(CCCCCCCCN2CCN(Cc3ccc(Cl)nc3)/C2=N/[N+](=O)[O-])CCN1Cc1ccc(Cl)nc1 | 83 | 27 | 5.37 | 80 | 97 | – | – | – | – | – | – | – | – | –
O=[N+]([O-])/N=C1\N(Cc2ccc(CN3CCN(Cc4ccc(Cl)nc4)/C3=N/[N+](=O)[O-])cc2)CCN1Cc1ccc(Cl)nc1 | 97 | 3 | 5.69 | 47 | 97 | – | – | – | – | – | – | – | – | –
